# Test results from ChEMBL document CHEMBL5291721, “A preclinical secondary pharmacology resource illuminates target-adverse drug reaction associations of marketed drugs” (Nat Commun, 2023).
# Legend:
# Adenosine receptor A1 = biological target: T1, Adenosine receptor A1 (Homo sapiens, UniProt P30542)
# T1 sequence (P30542 whole entry): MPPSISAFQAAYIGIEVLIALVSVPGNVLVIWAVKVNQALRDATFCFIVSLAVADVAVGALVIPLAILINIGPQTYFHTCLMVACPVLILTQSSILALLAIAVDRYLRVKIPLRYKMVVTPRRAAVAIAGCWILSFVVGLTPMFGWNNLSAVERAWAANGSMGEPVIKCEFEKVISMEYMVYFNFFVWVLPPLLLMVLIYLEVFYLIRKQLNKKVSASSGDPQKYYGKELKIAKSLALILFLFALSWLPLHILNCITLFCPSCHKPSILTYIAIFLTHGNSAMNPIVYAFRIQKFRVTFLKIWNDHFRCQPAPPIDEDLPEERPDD
# [1] = biological target: Beta-1 adrenergic receptor (Homo sapiens, UniProt P08588); assay type: functional
# [2] = biological target: Voltage-dependent L-type calcium channel subunit alpha-1C (Rattus norvegicus, UniProt P22002); assay type: functional
# [3] = biological target: Neuronal acetylcholine receptor subunit alpha-4 (Homo sapiens, UniProt P43681)
# D(1A) dopamine receptor = D(1A) dopamine receptor (Homo sapiens, UniProt P21728); assay type: functional, cell-based
# Histamine H2 receptor = Histamine H2 receptor (Homo sapiens, UniProt P25021); assay type: functional, cell-based
# [4] = biological target: Kappa-type opioid receptor (Homo sapiens, UniProt P41145)
# [5] = biological target: T2, Prostaglandin G/H synthase 1 (Rattus norvegicus, UniProt Q63921); assay type: functional
# T2 sequence (Q63921 whole entry): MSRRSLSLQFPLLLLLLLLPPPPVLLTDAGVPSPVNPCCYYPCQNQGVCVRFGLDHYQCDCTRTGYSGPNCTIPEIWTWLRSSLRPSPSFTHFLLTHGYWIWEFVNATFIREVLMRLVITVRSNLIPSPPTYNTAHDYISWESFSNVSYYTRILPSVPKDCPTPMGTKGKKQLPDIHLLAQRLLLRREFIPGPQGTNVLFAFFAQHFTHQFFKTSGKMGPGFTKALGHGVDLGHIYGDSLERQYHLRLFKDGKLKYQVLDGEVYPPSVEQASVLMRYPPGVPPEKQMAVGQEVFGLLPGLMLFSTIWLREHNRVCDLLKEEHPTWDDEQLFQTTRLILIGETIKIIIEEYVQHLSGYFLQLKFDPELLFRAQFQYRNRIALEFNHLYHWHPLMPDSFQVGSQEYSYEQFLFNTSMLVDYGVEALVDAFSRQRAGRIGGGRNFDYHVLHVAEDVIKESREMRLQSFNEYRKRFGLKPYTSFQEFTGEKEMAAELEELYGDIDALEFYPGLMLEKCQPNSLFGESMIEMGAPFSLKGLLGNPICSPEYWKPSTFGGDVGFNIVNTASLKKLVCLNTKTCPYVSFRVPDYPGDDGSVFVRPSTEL
# [6] = biological target: T3, Amine oxidase [flavin-containing] A (Homo sapiens, UniProt P21397); assay type: functional
# T3 sequence (P21397 whole entry): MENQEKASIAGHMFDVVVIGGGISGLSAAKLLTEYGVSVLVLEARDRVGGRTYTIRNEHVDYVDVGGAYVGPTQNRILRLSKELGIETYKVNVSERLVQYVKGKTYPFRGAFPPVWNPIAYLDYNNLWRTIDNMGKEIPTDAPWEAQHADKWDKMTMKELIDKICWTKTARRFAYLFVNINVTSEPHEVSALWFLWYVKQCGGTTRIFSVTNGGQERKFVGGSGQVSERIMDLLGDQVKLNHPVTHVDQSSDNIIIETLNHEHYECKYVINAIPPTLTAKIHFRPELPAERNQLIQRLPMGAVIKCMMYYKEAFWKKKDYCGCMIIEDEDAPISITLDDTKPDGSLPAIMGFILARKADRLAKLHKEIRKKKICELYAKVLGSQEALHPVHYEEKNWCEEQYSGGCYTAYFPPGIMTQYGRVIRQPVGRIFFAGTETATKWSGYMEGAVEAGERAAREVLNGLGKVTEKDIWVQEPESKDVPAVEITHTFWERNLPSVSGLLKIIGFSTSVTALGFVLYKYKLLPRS
# [7] = biological target: cGMP-inhibited 3',5'-cyclic phosphodiesterase 3A (Homo sapiens, UniProt Q14432); assay type: functional
# D(3) dopamine receptor = D(3) dopamine receptor (Homo sapiens, UniProt P35462)
# Histamine H3 receptor = Histamine H3 receptor (Homo sapiens, UniProt Q9Y5N1)
# [8] = biological target: T4, Gastrin/cholecystokinin type B receptor (Homo sapiens, UniProt P32239)
# T4 sequence (P32239 whole entry): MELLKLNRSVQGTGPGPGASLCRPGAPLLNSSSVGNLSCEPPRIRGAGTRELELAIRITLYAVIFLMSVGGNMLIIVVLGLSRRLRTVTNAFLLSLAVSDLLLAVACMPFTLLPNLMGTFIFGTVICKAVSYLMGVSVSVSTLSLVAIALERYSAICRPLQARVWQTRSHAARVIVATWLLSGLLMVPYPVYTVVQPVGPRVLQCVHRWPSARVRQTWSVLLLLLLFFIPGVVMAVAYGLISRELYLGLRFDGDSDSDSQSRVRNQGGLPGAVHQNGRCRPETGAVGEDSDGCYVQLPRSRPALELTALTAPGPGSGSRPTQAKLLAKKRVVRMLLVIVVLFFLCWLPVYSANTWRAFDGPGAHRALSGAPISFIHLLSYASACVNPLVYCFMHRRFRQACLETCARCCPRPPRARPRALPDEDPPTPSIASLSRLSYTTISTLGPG
# [9] = biological target: T5, Alpha-1A adrenergic receptor (Homo sapiens, UniProt P35348); assay type: functional, cell-based
# T5 sequence (P35348 whole entry): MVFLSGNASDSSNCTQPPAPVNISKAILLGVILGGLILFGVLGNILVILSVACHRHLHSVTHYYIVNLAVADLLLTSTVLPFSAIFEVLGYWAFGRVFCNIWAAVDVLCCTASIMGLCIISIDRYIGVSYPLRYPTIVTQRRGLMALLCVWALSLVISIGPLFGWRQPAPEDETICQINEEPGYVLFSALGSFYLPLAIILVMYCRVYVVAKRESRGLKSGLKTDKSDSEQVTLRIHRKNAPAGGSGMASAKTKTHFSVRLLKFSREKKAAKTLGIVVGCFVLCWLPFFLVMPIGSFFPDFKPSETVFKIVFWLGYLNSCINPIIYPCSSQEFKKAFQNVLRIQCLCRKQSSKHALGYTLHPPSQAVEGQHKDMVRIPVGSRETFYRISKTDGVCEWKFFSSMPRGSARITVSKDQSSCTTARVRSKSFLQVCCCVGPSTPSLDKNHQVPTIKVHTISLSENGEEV
# Also: assay procedure not described here.
# Sequence of Kappa-type opioid receptor (P41145 whole entry): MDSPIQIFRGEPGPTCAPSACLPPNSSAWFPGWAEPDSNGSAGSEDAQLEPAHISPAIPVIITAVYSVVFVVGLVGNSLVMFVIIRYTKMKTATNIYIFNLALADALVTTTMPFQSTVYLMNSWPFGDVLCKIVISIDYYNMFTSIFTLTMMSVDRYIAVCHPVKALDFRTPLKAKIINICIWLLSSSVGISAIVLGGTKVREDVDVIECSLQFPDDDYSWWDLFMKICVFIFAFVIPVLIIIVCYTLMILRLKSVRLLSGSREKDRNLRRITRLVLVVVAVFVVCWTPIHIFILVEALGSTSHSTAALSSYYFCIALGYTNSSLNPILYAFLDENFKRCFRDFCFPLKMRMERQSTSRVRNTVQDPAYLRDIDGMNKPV
# Sequence of Histamine H3 receptor (Q9Y5N1 whole entry): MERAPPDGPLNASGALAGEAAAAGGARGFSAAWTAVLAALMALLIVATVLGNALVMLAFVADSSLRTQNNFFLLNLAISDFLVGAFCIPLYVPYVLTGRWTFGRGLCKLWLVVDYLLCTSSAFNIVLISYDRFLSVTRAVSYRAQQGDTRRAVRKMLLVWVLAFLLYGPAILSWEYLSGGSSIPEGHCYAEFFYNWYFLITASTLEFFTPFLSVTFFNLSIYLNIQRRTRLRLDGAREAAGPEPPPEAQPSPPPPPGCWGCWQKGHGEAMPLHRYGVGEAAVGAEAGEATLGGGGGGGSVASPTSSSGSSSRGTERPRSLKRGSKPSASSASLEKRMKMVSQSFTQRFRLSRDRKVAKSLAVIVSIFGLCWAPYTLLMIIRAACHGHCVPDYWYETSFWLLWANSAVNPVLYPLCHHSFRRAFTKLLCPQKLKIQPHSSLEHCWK
# Sequence of Voltage-dependent L-type calcium channel subunit alpha-1C (P22002 whole entry): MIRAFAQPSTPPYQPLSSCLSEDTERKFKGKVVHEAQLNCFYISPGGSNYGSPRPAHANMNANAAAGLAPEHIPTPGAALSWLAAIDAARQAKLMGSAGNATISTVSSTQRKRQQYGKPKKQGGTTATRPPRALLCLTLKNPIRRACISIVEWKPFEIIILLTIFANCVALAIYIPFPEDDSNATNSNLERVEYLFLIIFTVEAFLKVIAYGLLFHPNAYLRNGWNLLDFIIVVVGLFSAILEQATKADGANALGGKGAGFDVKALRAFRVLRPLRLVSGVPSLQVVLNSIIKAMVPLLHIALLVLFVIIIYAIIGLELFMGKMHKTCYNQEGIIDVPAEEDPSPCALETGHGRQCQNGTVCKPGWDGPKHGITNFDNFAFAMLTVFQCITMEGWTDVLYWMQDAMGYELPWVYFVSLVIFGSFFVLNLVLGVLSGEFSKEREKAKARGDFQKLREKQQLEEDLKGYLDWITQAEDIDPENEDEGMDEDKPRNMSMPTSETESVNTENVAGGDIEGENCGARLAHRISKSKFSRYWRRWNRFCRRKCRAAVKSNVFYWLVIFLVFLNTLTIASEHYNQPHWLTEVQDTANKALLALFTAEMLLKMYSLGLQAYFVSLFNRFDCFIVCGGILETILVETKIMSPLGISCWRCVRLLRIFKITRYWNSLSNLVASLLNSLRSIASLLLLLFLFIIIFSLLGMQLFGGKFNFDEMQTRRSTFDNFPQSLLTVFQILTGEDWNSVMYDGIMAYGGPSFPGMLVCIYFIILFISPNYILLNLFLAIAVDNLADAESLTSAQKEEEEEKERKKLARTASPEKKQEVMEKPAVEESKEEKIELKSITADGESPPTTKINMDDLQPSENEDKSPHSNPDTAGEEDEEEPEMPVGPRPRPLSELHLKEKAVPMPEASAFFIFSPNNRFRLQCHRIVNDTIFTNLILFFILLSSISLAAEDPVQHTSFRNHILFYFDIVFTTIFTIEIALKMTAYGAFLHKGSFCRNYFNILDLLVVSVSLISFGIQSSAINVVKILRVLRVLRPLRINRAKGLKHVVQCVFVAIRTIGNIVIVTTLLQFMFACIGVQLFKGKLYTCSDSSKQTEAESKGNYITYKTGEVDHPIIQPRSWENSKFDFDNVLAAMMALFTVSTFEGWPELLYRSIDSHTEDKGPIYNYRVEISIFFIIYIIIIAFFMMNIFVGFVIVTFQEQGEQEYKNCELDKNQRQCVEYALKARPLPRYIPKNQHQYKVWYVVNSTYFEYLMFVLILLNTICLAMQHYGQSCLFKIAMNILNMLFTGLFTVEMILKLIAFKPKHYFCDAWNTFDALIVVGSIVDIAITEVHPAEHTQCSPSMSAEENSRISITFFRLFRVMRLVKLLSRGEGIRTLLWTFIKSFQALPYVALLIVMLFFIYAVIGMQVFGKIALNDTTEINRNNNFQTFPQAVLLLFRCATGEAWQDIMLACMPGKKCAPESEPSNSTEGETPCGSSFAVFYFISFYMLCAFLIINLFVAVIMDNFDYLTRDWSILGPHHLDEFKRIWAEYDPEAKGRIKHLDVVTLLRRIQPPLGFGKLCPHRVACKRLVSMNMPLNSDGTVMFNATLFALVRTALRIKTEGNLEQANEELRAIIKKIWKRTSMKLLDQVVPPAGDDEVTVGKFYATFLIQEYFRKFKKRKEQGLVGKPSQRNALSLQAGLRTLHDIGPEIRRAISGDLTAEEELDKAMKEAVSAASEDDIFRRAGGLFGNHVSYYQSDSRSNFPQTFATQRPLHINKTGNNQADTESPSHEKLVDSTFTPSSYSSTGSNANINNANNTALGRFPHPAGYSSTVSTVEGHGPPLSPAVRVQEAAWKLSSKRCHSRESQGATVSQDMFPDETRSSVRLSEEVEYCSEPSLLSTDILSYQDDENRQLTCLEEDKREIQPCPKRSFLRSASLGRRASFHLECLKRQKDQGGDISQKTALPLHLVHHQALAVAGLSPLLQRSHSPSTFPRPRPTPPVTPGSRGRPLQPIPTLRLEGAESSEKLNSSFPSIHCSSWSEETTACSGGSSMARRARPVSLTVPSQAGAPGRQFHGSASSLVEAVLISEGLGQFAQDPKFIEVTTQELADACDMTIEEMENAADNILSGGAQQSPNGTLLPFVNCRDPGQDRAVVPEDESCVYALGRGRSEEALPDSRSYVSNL
# Sequence of D(3) dopamine receptor (P35462 whole entry): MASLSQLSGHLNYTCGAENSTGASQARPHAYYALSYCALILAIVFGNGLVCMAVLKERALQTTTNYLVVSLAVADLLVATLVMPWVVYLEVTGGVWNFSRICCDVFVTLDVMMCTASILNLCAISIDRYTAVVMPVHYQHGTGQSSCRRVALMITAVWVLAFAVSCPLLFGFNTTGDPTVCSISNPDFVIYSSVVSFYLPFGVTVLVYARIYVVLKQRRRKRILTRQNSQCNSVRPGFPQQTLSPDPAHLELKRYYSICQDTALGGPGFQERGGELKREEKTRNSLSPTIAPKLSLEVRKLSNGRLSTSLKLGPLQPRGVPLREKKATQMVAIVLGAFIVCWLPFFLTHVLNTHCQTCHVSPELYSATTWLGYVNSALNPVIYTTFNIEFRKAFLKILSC
# Sequence of D(1A) dopamine receptor (P21728 whole entry): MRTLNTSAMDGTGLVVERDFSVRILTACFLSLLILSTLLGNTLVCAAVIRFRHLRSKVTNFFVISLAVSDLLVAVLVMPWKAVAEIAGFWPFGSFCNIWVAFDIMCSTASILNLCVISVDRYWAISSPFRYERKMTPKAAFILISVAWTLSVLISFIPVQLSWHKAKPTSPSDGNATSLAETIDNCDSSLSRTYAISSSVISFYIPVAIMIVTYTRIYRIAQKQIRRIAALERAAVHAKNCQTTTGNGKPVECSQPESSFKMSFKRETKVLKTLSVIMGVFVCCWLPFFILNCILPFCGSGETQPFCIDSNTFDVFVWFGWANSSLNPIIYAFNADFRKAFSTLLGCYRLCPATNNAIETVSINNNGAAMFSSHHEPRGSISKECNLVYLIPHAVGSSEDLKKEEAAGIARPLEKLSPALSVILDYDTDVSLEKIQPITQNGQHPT
# Sequence of cGMP-inhibited 3',5'-cyclic phosphodiesterase 3A (Q14432 whole entry): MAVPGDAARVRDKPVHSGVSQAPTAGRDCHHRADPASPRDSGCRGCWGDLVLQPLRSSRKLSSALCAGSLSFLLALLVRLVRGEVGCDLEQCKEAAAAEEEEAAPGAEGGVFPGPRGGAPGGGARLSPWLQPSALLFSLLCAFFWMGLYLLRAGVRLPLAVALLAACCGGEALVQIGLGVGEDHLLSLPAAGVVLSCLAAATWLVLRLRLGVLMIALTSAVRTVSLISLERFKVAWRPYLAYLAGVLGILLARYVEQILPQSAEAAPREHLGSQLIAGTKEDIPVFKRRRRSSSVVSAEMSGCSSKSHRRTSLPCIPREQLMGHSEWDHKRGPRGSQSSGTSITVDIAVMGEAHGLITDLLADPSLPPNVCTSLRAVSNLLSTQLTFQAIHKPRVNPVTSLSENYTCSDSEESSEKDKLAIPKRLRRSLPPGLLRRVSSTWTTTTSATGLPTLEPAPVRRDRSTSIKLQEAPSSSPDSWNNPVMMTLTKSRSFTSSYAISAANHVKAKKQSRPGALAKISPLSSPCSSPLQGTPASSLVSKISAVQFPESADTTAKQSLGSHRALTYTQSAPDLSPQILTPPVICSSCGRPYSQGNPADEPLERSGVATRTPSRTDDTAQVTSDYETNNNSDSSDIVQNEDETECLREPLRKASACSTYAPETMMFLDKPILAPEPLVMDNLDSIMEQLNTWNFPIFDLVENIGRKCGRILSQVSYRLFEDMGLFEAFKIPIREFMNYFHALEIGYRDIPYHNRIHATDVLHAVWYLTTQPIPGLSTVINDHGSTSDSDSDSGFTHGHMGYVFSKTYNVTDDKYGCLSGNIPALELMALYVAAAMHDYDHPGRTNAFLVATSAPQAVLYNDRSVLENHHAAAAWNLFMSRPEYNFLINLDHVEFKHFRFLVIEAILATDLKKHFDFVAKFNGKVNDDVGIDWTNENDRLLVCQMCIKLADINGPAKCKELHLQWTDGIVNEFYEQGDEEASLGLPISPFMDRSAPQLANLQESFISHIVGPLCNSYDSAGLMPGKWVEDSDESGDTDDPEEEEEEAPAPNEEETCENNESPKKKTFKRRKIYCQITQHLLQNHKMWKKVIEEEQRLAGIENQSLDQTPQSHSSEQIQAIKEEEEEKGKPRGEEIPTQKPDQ
SMILES,AC50 (Adenosine receptor A1) [µM],AC50 [1] [µM],AC50 [2] [µM],AC50 [3] [µM],AC50 (D(1A) dopamine receptor) [µM],AC50 (Histamine H2 receptor) [µM],AC50 [4] [µM],AC50 [5] [µM],AC50 [6] [µM],AC50 [7] [µM],AC50 (D(3) dopamine receptor) [µM],AC50 (Histamine H3 receptor) [µM],AC50 [8] [µM],AC50 [9] [µM]
CC(=O)[C@@]1(O)CC[C@H]2[C@@H]3C=C(Cl)C4=CC(=O)[C@@H]5C[C@@H]5[C@]4(C)[C@H]3CC[C@@]21C [CYPROTERONE],> 10,> 10,> 10,> 10,2.07,> 10,5.32,> 10,> 10,16,> 30,,,
C/C(=C\C(=O)OCCCCCCCCC(=O)O)C[C@@H]1OC[C@H](C[C@@H]2O[C@H]2[C@@H](C)[C@H](C)O)[C@@H](O)[C@H]1O [MUPIROCIN],> 10,> 10,> 10,> 10,> 10,> 10,> 10,> 10,> 10,> 30,> 30,> 10,,
C#CCOc1ccc(N)cc1C(=O)NCCCC [PARSALMIDE],> 30,> 30,> 30,> 30,> 30,> 30,> 30,2.3,> 30,> 30,> 30,> 30,> 30,
CCN1CCCC1CNC(=O)c1cc(S(=O)(=O)CC)c(N)cc1OC (configuration not stated) [AMISULPRIDE],> 30,> 30,,> 30,> 30,> 30,> 30,29,> 30,> 30,,12,> 30,
COc1cc2c(cc1OC)C(CCc1ccc(Cl)cc1)N(C)CC2 (configuration not stated) [METHOPHOLINE],> 30,> 30,> 10,> 30,> 10,> 10,1.2,0.77,11,> 30,> 30,> 30,,
COc1cc2ncnc(Nc3ccc(F)c(Cl)c3)c2cc1NC(=O)/C=C/CN1CCCCC1 [DACOMITINIB ANHYDROUS],,> 30,,> 30,,,,> 30,> 30,> 30,,,,> 30
NC(=O)CN1CCCC1=O,> 30,> 30,,> 30,> 30,> 30,> 30,> 30,> 30,> 30,> 30,> 30,> 30,> 30
CC(=O)[C@]1(O)Cc2c(O)c3c(c(O)c2[C@@H](O[C@H]2C[C@H](N)[C@H](O)[C@H](C)O2)C1)C(=O)c1ccccc1C3=O [IDARUBICIN],> 10,> 30,> 30,> 30,> 30,> 30,,> 30,> 30,> 30,17,> 30,> 30,
Cn1cnc2c(F)c(Nc3ccc(Br)cc3Cl)c(C(=O)NOCCO)cc21 [SELUMETINIB],,,,> 10,,,,> 30,> 10,> 30,,,,
Cn1c(=O)cc(N2CCC[C@@H](N)C2)n(Cc2ccccc2C#N)c1=O [ALOGLIPTIN],> 30,> 10,> 10,> 10,,,8.32,> 30,,> 30,> 10,> 10,> 30,
Oc1ccc2c(c1)[C@@]13CCCC[C@@]1(O)[C@@H](C2)N(CC1CCC1)CC3 [BUTORPHANOL],> 30,> 30,,> 30,> 30,> 30,0.025,> 30,> 30,> 30,> 30,> 30,> 30,> 30
OCc1cc(C(O)CNCCCCCCOCCCCc2ccccc2)ccc1O (configuration not stated) [SALMETEROL],> 30,,> 10,> 10,> 30,> 10,11,> 30,> 10,> 30,8.9,> 10,> 30,
O=C1CN=C(c2ccccc2)c2cc([N+](=O)[O-])ccc2N1 [NITRAZEPAM],> 10,> 10,> 10,> 10,> 30,> 30,> 10,> 10,> 10,> 30,> 30,,,
O=C1CN=C(c2ccccn2)c2cc(Br)ccc2N1 [BROMAZEPAM],> 10,> 10,> 10,> 10,> 10,> 10,> 10,> 10,> 10,> 30,> 30,,,
CN(C(=O)c1c(O)c2ccccc2n(C)c1=O)c1ccccc1 [ROQUINIMEX],,> 30,,> 30,,,,> 30,> 30,> 30,,,,> 30
